target: human p38alfa (SAPKa) enzyme (Homo sapiens (Human), UniProt Q16539); assay: Inhibition Assay: p38 enzymatic activity (ATF2 phosphorylation, FRET); format: biochemical; settings: read-out: p38α IC50
Sequence (Q16539 whole entry): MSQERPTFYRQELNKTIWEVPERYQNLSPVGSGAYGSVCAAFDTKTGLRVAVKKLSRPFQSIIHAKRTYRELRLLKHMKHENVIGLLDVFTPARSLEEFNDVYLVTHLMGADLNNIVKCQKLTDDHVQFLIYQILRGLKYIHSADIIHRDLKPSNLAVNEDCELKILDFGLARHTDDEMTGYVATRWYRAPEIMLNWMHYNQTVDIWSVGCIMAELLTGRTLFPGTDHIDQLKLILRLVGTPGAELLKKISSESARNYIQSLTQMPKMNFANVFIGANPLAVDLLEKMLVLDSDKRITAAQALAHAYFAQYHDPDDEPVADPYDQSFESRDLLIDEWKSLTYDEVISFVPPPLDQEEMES

| Compound | IC50 |
| --- | --- |
| Cc1nnc(-c2ccc(C)c(-c3ccc4c(c3)NC(=O)C43CCC3)c2)[nH]1 [Example 54, 6′-[2-Methyl-5-(5-methyl-4H-1,2,4-triazol-3-yl)phenyl]spiro[cyclobutane-1,3′-indol]-2′(1′H)-one] | 18 nM |
| Cc1ccc(C(=O)NC2CC2)cc1-c1ncc2c(n1)NC(=O)C21CCCC1 [Example 52, N-Cyclopropyl-4-methyl-3-(6′-oxo-6′,7′-dihydrospiro[cyclopentane-1,5′-pyrrolo[2,3-c]pyrimidin]-2′-yl)benzamide] | 72 nM |
| Cc1ccc(C(=O)Nc2ccon2)cc1-c1ccc2c(c1)NC(=O)C2(C)C [Example 19, 3-(3,3-Dimethyl-2-oxo-2,3-dihydro-1H-indol-6-yl)-N-isoxazol-3-yl-4-methylbenzamide] | 0.04 nM |
| Cc1nnc(-c2ccc(C)c(-c3ccc4c(c3)NC(=O)C43CCN(S(C)(=O)=O)CC3)c2)[nH]1 [Example 67, 6-(2-methyl-5-(5-methyl-4H-1,2,4-triazol-3-yl)phenyl)-1′-(methylsulfonyl)spiro[indoline-3,4′-piperidin]-2-one] | 4.7 nM |
| Cc1ccc(C(=O)NC2CC2)cc1-c1ccc2c(c1)NC(=O)C21CCC(F)(F)CC1 [Example 32, N-Cyclopropyl-3-(4,4-difluoro-2′-oxospiro[cyclohexane-1,3′-indoline]-6′-yl)-4-methylbenzamide] | 1.8 nM |
| Cc1ccc(C(=O)NC2CC2)cc1-c1ccc2c(c1)NC(=O)C21CCOCC1 [Example 22, N-Cyclopropyl-4-methyl-3-(2-oxo-2′,3′,5′,6′-tetrahydrospiro[indoline-3,4′-pyran]-6-yl)benzamide] | 1.4 nM |
| Cc1ccc(C(=O)NCC2CC2)cc1-c1ccc2c(c1)NC(=O)C2(C)C [Example 18, N-(Cyclopropylmethyl)-3-(3,3-dimethyl-2-oxoindolin-6-yl)-4-methylbenzamide] | 27 nM |
| Cc1nnc(-c2ccc(C)c(-c3ccc4c(c3)NC(=O)C43CCCC3)c2)o1 [Example 70, 6′-(2-Methyl-5-(5-methyl-1,3,4-oxadiazol-2-yl)phenyl)spiro[cyclopentane-1,3′-indolin]-2′-one] | 32 nM |
| Cc1ccc(C(=O)NC2CC2)cc1-c1ccc2c(c1)NC(=O)C21CCC(O)CC1 (stereo not drawn) [Example 34, N-cyclopropyl-3-(4-hydroxy-2′-oxospiro[cyclohexane-1,3′-indoline]-6′-yl)-4-methylbenzamide] | 1.4 nM |
| Cc1nnc(-c2ccc(C)c(-c3ccc4c(c3)NC(=O)C43CCC(F)(F)CC3)c2)[nH]1 [Example 63, 4,4-Difluoro-6′-(2-methyl-5-(5-methyl-4H-1,2,4-triazol-3-yl)phenyl)spiro[cyclohexane-1,3′-indolin]-2′-one] | 2 nM |
| Cc1ccc(C(=O)NC2CC2)cc1-c1ccc2c(c1)NC(=O)C21CCC(C)(O)CC1 (stereo not drawn) [Example 37, N-cyclopropyl-3-(4-hydroxy-4-methyl-2′-oxospiro[cyclohexane-1,3′-indoline]-6′-yl)-4-methylbenzamide] | 0.8 nM |
| Cc1ccc(C(=O)NC2CC2)cc1-c1cnc2c(c1)NC(=O)C21CCOCC1 [Example 47, N-Cyclopropyl-4-methyl-3-(2′-oxo-1′,2,2′,3,5,6-hexahydrospiro[pyran-4,3′-pyrrolo-[3,2-b]pyridin]-6′-yl)benzamide] | 13 nM |
| Cc1nnc(-c2cc(F)c(C)c(-c3ccc4c(c3)NC(=O)C43CCOCC3)c2)[nH]1 [Example 61, 6-[3-Fluoro-2-methyl-5-(5-methyl-4H-1,2,4-triazol-3-yl)phenyl]-2′,3′,5′,6′-tetrahydro-spiro[indole-3,4′-pyran]-2(1H)-one] | 8 nM |
| Cc1ccc(C(=O)NC2CC2)cc1-c1ccc2c(c1)NC(=O)C21CCC(N2CCOCC2)CC1 (stereo not drawn) [Example 40, N-cyclopropyl-4-methyl-3-(4-morpholino-2′-oxospiro[cyclohexane-1,3′-indoline]-6′-yl)benzamide] | 1 nM |
| Cc1nnc(-c2ccc(C)c(-c3ccc4c(c3)NC(=O)C43CCC(O)CC3)c2)o1 (stereo not drawn) [Example 73, 4-hydroxy-6′-(2-methyl-5-(5-methyl-1,3,4-oxadiazol-2-yl)phenyl)spiro[cyclohexane-1,3′-indolin]-2′-one] | 5.7 nM |
| Cc1ccc(C(=O)NC2CC2)cc1-c1cnc2c(c1)NC(=O)C2(C)C [Example 45, N-Cyclopropyl-3-(3,3-dimethyl-2-oxo-2,3-dihydro-1H-pyrrolo[3,2-b]pyridin-6-yl)-4-methylbenzamide] | 62 nM |
| Cc1ccc(C(=O)NC2CC2)cc1-c1ccc2c(c1)NC(=O)C21CCS(=O)(=O)CC1 [Example 27, N-Cyclopropyl-3-(1′,1′-dioxido-2-oxo-1,2,2′,3′,5′,6′-hexahydrospiro[indole-3,4′-thiopyran]-6-yl)-4-methylbenzamide] | 6.7 nM |
| Cc1ccc(C(=O)Nc2ccon2)cc1-c1ccc2c(c1)NC(=O)C21CCOCC1 [Example 23, N-Isoxazol-3-yl-4-methyl-3-(2-oxo-1,2,2′,3′,5′,6′-hexahydrospiro[indole-3,4′-pyran]-6-yl)benzamide] | 0.06 nM |
| Cc1nnc(-c2ccc(C)c(-c3ccc4c(c3)NC(=O)C43CCCC3)c2)[nH]1 [Example 53, 6′-(2-Methyl-5-(5-methyl-4H-1,2,4-triazol-3-yl)phenyl)spiro[cyclopentane-1,3′-indolin]-2′-one] | 7.5 nM |
| Cc1c(F)cc(C(=O)NC2CC2)cc1-c1ccc2c(c1)NC(=O)C21CCN(S(C)(=O)=O)CC1 [Example 31, N-cyclopropyl-3-fluoro-4-methyl-5-(1′-(methylsulfonyl)-2-oxospiro[indoline-3,4′-piperidine]-6-yl)benzamide] | 1 nM |
| Cc1ccc(C(=O)NC2CC2)cc1-c1ccc2c(n1)NC(=O)C21CCCC1 [Example 43, N-Cyclopropyl-4-methyl-3-(2′-oxo-1′,2′-dihydrospiro[cyclopentane-1,3′-pyrrolo[2,3-b]pyridine]-6′-yl)benzamide] | 5.6 nM |
| Cc1nnc(-c2ccc(C)c(-c3ccc4c(c3)NC(=O)C43CCC(F)(F)CC3)c2)o1 [Example 72, 4,4-Difluoro-6′-(2-methyl-5-(5-methyl-1,3,4-oxadiazol-2-yl)phenyl)spiro-[cyclohexane-1,3′-indolin]-2′-one] | 5.6 nM |
| Cc1nnc(-c2ccc(C)c(-c3ccc4c(c3)NC(=O)C43CCOCC3)c2)[nH]1 [Example 59, 6-(2-Methyl-5-(5-methyl-4H-1,2,4-triazol-3-yl)phenyl)-2′,3′,5′,6′-tetrahydrospiro[indoline-3,4′-pyran]-2-one] | 10 nM |
| Cc1nnc(-c2cc(F)c(C)c(-c3ccc4c(c3)NC(=O)C43CCC(C)(O)CC3)c2)[nH]1 (stereo not drawn) [Example 65, 6′-(3-fluoro-2-methyl-5-(5-methyl-4H-1,2,4-triazol-3-yl)phenyl)-4-hydroxy-4-methylspiro[cyclohexane-1,3′-indolin]-2′-one] | 8 nM |
| Cc1ccc(C(=O)NC2CC2)cc1-c1cc2c(cn1)C1(CCCC1)C(=O)N2 [Example 51, N-Cyclopropyl-4-methyl-3-(2′-oxo-1′,2′-dihydrospiro[cyclopentane-1,3′-pyrrolo[3,2-c]pyridin]-6′-yl)benzamide] | 0.8 nM |
| Cc1ccc(-c2ncn[nH]2)cc1-c1ccc2c(c1)NC(=O)C21CCCC1 [Example 55, 6′-(2-Methyl-5-(4H-1,2,4-triazol-3-yl)phenyl)spiro[cyclopentane-1,3′-indolin]-2′-one] | 9 nM |
| Cc1ccc(C(N)=O)cc1-c1ccc2c(c1)NC(=O)C2(C)C [Example 7, 3-(3,3-dimethyl-2-oxoindolin-6-yl)-4-methylbenzamide] | 80 nM |

From patent US8772288B2, “Substituted spiro[cycloalkyl-1,3′-indo]-2′(1′H)-one derivatives and their use as P38 mitogen-activated kinase inhibitors” (Almirall, S.A., priority 2008, dated 2014)
